Where “and” joins values, the source holds several entries; their conditions need not be identical. Equal entries are not always repeated. Inconclusive results and toxic doses are left out. No stated cut-off is given here; in the data, active means T/C of 150% or more; inactive means T/C below 125%.
Tested on: L1210 leukemia ip in BDF1 mice, survival T/C
Assay: NCI In Vivo Anticancer Drug Screen. Data for tumor model L1210 Leukemia (intraperitoneal) in B6D2F1 (BDF1) mice
Conditions: endpoint: mean survival time, higher = longer survival
Outline: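 Value reflects the ratio of survival in compound-treated mice to survival in vehicle-treated controls, with both groups carrying the same transplanted tumor.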

[1] = dose: 100.0 mg/kg/injection, schedule: Q04DX002 (ip), vehicle: saline with Tween-80
[2] = dose: 200.0 mg/kg/injection, schedule: Q04DX002 (ip), vehicle: saline with Tween-80
[3] = dose: 400.0 mg/kg/injection, schedule: Q04DX002 (ip), vehicle: saline with Tween-80
[4] = dose: 100.0 mg/kg/injection, schedule: Q04DX003 (ip), vehicle: saline with Tween-80
[5] = dose: 200.0 mg/kg/injection, schedule: Q04DX003 (ip), vehicle: saline with Tween-80
[6] = dose: 400.0 mg/kg/injection, schedule: Q04DX003 (ip), vehicle: saline with Tween-80
[7] = dose: 100.0 mg/kg/injection, schedule: Q01DX001 (ip), vehicle: saline
[8] = dose: 200.0 mg/kg/injection, schedule: Q01DX001 (ip), vehicle: saline
[9] = dose: 400.0 mg/kg/injection, schedule: Q01DX001 (ip), vehicle: saline
[10] = dose: 100.0 mg/kg/injection, schedule: Q04DX002 (ip), vehicle: saline
[11] = dose: 200.0 mg/kg/injection, schedule: Q04DX002 (ip), vehicle: saline
[12] = dose: 400.0 mg/kg/injection, schedule: Q04DX002 (ip), vehicle: saline
[13] = dose: 100.0 mg/kg/injection, schedule: Q01DX009 (ip), vehicle: Klucel (hydroxypropylcellulose) (HPC)
[14] = dose: 200.0 mg/kg/injection, schedule: Q01DX009 (ip), vehicle: Klucel (hydroxypropylcellulose) (HPC)

Measured: T/C

Cc1cc(C)c(/C=C2\CCNC2=O)c(C)c1
inactive: dose: 50.0 mg/kg/injection, schedule: Q01DX001 (ip), vehicle: carboxymethylcellulose (CMC) 96 % of control | dose: 100.0 mg/kg/injection, schedule: Q01DX001 (ip), vehicle: carboxymethylcellulose (CMC) 90 % of control | dose: 200.0 mg/kg/injection, schedule: Q01DX001 (ip), vehicle: carboxymethylcellulose (CMC) 100 % of control | dose: 400.0 mg/kg/injection, schedule: Q01DX001 (ip), vehicle: carboxymethylcellulose (CMC) 105 % of control

COc1cc(/C=N\NC(=S)Nc2ccc(S(=O)(=O)N3CCCCC3)cc2)cc(OC)c1OC
inactive: [1] 98 % of control | [2] 103 % of control | [3] 90 % of control

CNC(=O)OC(C)(C)C#N
inactive: [1] 101 % of control | [2] 101 % of control | [3] 106 % of control

Cc1ccc(O)c(C(c2cc(S(=O)(=O)O)c(O)cc2C)N2CN(C(c3cc(S(=O)(=O)O)c(O)cc3C)c3cc(C)ccc3O)C2=O)c1 (stereo not drawn)
inactive: [1] 101 % of control | [2] 93 % of control

Cc1ccc(NC(=O)Oc2ccc([N+](=O)[O-])cc2)cc1S(=O)(=O)F
inactive: dose: 100.0 mg/kg/injection, schedule: Q01DX001 (ip), vehicle: saline with Tween-80 100 % of control and 101 % of control | dose: 100.0 mg/kg/injection, schedule: Q01DX009 (ip), vehicle: saline with Tween-80 98 % of control and 101 % of control | [1] 94 % of control and 99 % of control | [4] 98 % of control and 102 % of control | dose: 200.0 mg/kg/injection, schedule: Q01DX001 (ip), vehicle: saline with Tween-80 97 % of control and 100 % of control | dose: 200.0 mg/kg/injection, schedule: Q01DX009 (ip), vehicle: saline with Tween-80 103 % of control and 109 % of control | [2] 100 % of control and 90 % of control | [5] 94 % of control and 102 % of control | dose: 400.0 mg/kg/injection, schedule: Q01DX001 (ip), vehicle: saline with Tween-80 104 % of control and 107 % of control | [3] 96 % of control and 101 % of control | [6] 98 % of control

COP1(=O)OC(C)C(C)O1 (stereo not drawn)
inactive: [7] 98 % of control | [8] 102 % of control | [9] 93 % of control

C=C1CC2(CCC3(CC2)CC(=C)C(=O)O3)OC1=O (stereo not drawn)
inactive: dose: 12.5 mg/kg/injection, schedule: Q04DX003 (ip), vehicle: saline 102 % of control | dose: 25.0 mg/kg/injection, schedule: Q04DX003 (ip), vehicle: saline 116 % of control | dose: 50.0 mg/kg/injection, schedule: Q04DX003 (ip), vehicle: saline 119 % of control

CC(C)CCC[C@@H](C)[C@H]1CC[C@H]2[C@@H]3CC=C4C[C@@H](Cl)CC[C@]4(C)[C@H]3CC[C@]12C
inactive: dose: 100.0 mg/kg/injection, schedule: Q01DX009 (sc), vehicle: Klucel (hydroxypropylcellulose) (HPC) 110 % of control | dose: 200.0 mg/kg/injection, schedule: Q01DX009 (sc), vehicle: Klucel (hydroxypropylcellulose) (HPC) 101 % of control | dose: 400.0 mg/kg/injection, schedule: Q01DX009 (sc), vehicle: Klucel (hydroxypropylcellulose) (HPC) 114 % of control

O=C(CC(O)c1ccccc1)Nc1cccnc1 (stereo not drawn)
inactive: dose: 100.0 mg/kg/injection, schedule: Q01DX001 (ip), vehicle: other 96 % of control

N/N=C(\N)c1ccc(NC(=O)c2ccc(C(=O)Nc3ccc(/C(N)=N/N)cc3)cc2)cc1
inactive: dose: 15.0 mg/kg/injection, schedule: Q01DX Z (ip), vehicle: saline 104 % of control | dose: 30.0 mg/kg/injection, schedule: Q01DX Z (ip), vehicle: saline 100 % of control | dose: 60.0 mg/kg/injection, schedule: Q01DX Z (ip), vehicle: saline 103 % of control | dose: 120.0 mg/kg/injection, schedule: Q01DX Z (ip), vehicle: saline 97 % of control

OCC(O)C(O)C(O)C(O)CNCC(O)C(O)C(O)C(O)CO (stereo not drawn)
inactive: [10] 98 % of control and 91 % of control and 88 % of control | [11] 91 % of control and 100 % of control | [12] 91 % of control and 107 % of control and 95 % of control

CCCCCCCCCC(=O)OCC(COC(=O)CCCCCCCCC)OC(=O)CCCCCCCCC
inactive: dose: 100.0 mg/kg/injection, schedule: Q01DX009 (sc), vehicle: olive oil, sesame oil, peanut oil 103 % of control | dose: 100.0 mg/kg/injection, schedule: Q04DX003 (sc), vehicle: olive oil, sesame oil, peanut oil 101 % of control | dose: 200.0 mg/kg/injection, schedule: Q01DX009 (sc), vehicle: olive oil, sesame oil, peanut oil 101 % of control | dose: 200.0 mg/kg/injection, schedule: Q04DX003 (sc), vehicle: olive oil, sesame oil, peanut oil 97 % of control | dose: 400.0 mg/kg/injection, schedule: Q01DX009 (sc), vehicle: olive oil, sesame oil, peanut oil 104 % of control | dose: 400.0 mg/kg/injection, schedule: Q04DX003 (sc), vehicle: olive oil, sesame oil, peanut oil 104 % of control

O=C(Sc1n[nH]c(=O)[nH]c1=O)c1ccccc1
inactive: [7] 109 % of control | [8] 107 % of control | [9] 105 % of control

O=C(NCC1=NCCN1)c1ccccc1
inactive: [10] 96 % of control | [11] 89 % of control | [12] 96 % of control

CCCCCCCC(=O)N1CCCCC1CC (stereo not drawn)
inactive: [1] 96 % of control | [2] 86 % of control

CC(C)C(=O)Nc1ccc(S(=O)(=O)Cl)cc1
inactive: [4] 95 % of control | [5] 90 % of control | [6] 86 % of control

Cc1nc2ccccc2c(=O)n1C(C)(C)CCl
inactive: [4] 95 % of control | [5] 92 % of control | [6] 95 % of control

NC(=O)CN(CC(N)=O)CC(N)=O
inactive: [7] 102 % of control | [8] 98 % of control | [9] 102 % of control

Cc1ccc(NC(=O)C(Cl)(Cl)Cl)cc1C
inactive: dose: 100.0 mg/kg/injection, schedule: Q04DX003 (ip), vehicle: Klucel (hydroxypropylcellulose) (HPC) 93 % of control | dose: 200.0 mg/kg/injection, schedule: Q04DX003 (ip), vehicle: Klucel (hydroxypropylcellulose) (HPC) 101 % of control | dose: 400.0 mg/kg/injection, schedule: Q04DX003 (ip), vehicle: Klucel (hydroxypropylcellulose) (HPC) 90 % of control

Cc1cc(OCC#CCN(C)c2ccccc2)ccc1Cl
inactive: dose: 100.0 mg/kg/injection, schedule: Q04DX002 (ip), vehicle: Klucel (hydroxypropylcellulose) (HPC) 89 % of control | dose: 200.0 mg/kg/injection, schedule: Q04DX002 (ip), vehicle: Klucel (hydroxypropylcellulose) (HPC) 99 % of control | dose: 400.0 mg/kg/injection, schedule: Q04DX002 (ip), vehicle: Klucel (hydroxypropylcellulose) (HPC) 96 % of control

O=C(Nc1ccccc1F)OC/C=C/c1ccccc1
inactive: [13] 104 % of control | [14] 97 % of control | dose: 400.0 mg/kg/injection, schedule: Q01DX009 (ip), vehicle: Klucel (hydroxypropylcellulose) (HPC) 95 % of control

O=C(O)c1cc(Cl)ccc1Br
inactive: dose: 50.0 mg/kg/injection, schedule: Q01DX009 (ip), vehicle: Klucel (hydroxypropylcellulose) (HPC) 104 % of control | [13] 100 % of control | [4] 100 % of control | [14] 105 % of control | [5] 104 % of control | [6] 94 % of control
